This is an account of results in US11590116B2 (THERAVANCE BIOPHARMA R&D IP, LLC, priority 2019, dated 2023).

The test system of assay [1] is TGF-β-stimulated SMAD3 phosphorylation in BEAS-2B cells. Description: Cellular ALK5 potency assay, inhibition of TGF-β stimulated pSMAD3 formation in BEAS-2B cells. The format is cell-based. Conditions: Homo sapiens; inhibition of TGF-β stimulated pSMAD3 formation, BEAS-2B cells; read-out: BEAS2B pIC50 (converted). Put shortly:
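AlphaLISA pSMAD3 read-out, beads incubated overnight. Human BEAS-2B cells: 1 h compound preincubation (37 °C, 5% CO2), then 30 min TGF-β at 10 ng/mL final, immediate lysis. Values are pIC50 relative to stimulated, compound-free baseline.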

For assay [2], the target named is T1, recombinant human ALK5 (TGF-βR1) protein (Homo sapiens, UniProt P36897).
T1 construct: purchased Life Technologies PR9075A
T1 sequence (P36897 34-503): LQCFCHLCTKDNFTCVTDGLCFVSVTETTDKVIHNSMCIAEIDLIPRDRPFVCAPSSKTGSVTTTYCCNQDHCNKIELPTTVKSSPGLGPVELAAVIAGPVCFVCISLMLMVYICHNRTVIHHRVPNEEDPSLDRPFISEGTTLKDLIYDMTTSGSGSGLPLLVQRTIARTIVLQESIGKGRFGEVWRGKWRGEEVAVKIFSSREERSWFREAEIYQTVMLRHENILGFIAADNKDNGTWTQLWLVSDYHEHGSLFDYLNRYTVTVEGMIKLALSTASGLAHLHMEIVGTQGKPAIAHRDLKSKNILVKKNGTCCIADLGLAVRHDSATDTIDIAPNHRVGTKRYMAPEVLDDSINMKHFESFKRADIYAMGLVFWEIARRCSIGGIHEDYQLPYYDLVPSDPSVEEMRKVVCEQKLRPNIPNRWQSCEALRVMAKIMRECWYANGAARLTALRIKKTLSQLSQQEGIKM
Description: Biochemical ALK5 (TGF-βR1) assay to measure pKi (LANCE Ultra ULight kinase assay). The conditions noted are these: apparent pKi from pIC50 by Cheng-Prusoff, read-out: ALK5 pKi (converted). Put shortly: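 After a 60 min room-temperature preincubation of ALK5 with compound, phosphorylation proceeds 60 min at 37 °C on ATP addition (125 μM as 5× stock). Detection: Eu-labelled phospho-Thr1342 Topo IIα antibody in EDTA buffer, pH 7.0; emission 665 nm.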
Background: TR-FRET usually uses a lanthanide donor and a delayed reading to cut background.

Take `Cc1cccc(-c2[nH]cnc2-c2ccc3ncc(NCCN4CCC5(CC4)CNC5)cc3c2)n1` [Compound 404, N-[2-(2,7-diazaspiro[3.5]nonan-7-yl)ethyl]-6-[5-(6-methyl-2-pyridyl)-1H-imidazol-4-yl]quinolin-3-amine]: the IC50 in assay [1] is 200 to 1260 nM. The Ki in assay [2] was 0.0398 to 0.316 nM.

As to `Cc1cccc(-c2[nH]cnc2-c2ccc3ncc(C(=O)OC4CCCCNC4)cc3c2)n1` (stereo not drawn) [Compound 773, azepan-3-yl 6-[5-(6-methyl-2-pyridyl)-1H-imidazol-4-yl]quinoline-3-carboxylate], the IC50 in assay [1] was 25.1 to 158 nM. Besides, the Ki in assay [2] was 0.0398 to 0.316 nM.

Regarding `Cc1nc(-c2n[nH]cc2-c2ccc3ncc(-c4cnn(C[C@@H]5CC[C@H](N)C5)c4)cc3n2)ccc1F` (racemic) [Compound 547, rac-(1S,3R)-3-[[4-[6-[3-(5-fluoro-6-methyl-2-pyridyl)-1H-pyrazol-4-yl]-1,5-naphthyridin-3-yl]pyrazol-1-yl]methyl]cyclopentanamine], the IC50 in assay [1] was 200 to 1260 nM. For the same compound, the Ki in assay [2] was 0.0398 to 0.316 nM.

Consider `CCc1cccc(-c2n[nH]cc2-c2ccc3ncc(N4CCC(N5CCCC5)CC4)cc3n2)n1` [Compound 532, 2-(3-(6-ethylpyridin-2-yl)-1H-pyrazol-4-yl)-7-(4-(pyrrolidin-1-yl)piperidin-1-yl)-1,5-naphthyridine], for which, in assay [1], the IC50 is 25.1 to 158 nM. The Ki in assay [2] is below 0.0316 nM.

On to `Cc1cccc(-c2[nH]cnc2-c2ccc3ncc(C(=O)O[C@@H]4CCN(C)C4)cc3c2)n1` [Compound 758, [(3R)-1-methylpyrrolidin-3-yl] 6-[5-(6-methyl-2-pyridyl)-1H-imidazol-4-yl]quinoline-3-carboxylate], for which the IC50 in assay [1] is 25.1 to 158 nM. In addition, the Ki in assay [2] was 0.398 to 3.16 nM.

Consider `Cc1cccc(-c2nnn(Cc3ccccc3)c2-c2ccc3ncc(N4CCNCC4)cc3n2)n1` [Compound 359, 2-(1-benzyl-4-(6-methylpyridin-2-yl)-1H-1,2,3-triazol-5-yl)-7-(piperazin-1-yl)-1,5-naphthyridine], for which the IC50 in assay [1] was 25.1 to 158 nM. In addition, the Ki in assay [2] was 0.0398 to 0.316 nM.

With `Cc1cccc(-c2[nH]cnc2-c2ccc3ncc(NCCN4CCNCC4)cc3c2)n1` [Compound 122, 6-[5-(6-methyl-2-pyridyl)-1H-imidazol-4-yl]-N-(2-piperazin-1-ylethyl)quinolin-3-amine], the IC50 in assay [1] was 25.1 to 158 nM. The Ki in assay [2] is 0.0398 to 0.316 nM.

As to `Cc1cccc(-c2[nH]cnc2-c2ccc3ncc(C4=CCC(C(=O)O)CC4)cc3c2)n1` (stereo not drawn) [Compound 461, 4-[6-[5-(6-methyl-2-pyridyl)-1H-imidazol-4-yl]-3-quinolyl]cyclohex-3-ene-1-carboxylic acid], in assay [1], the IC50 is 25.1 to 158 nM. Besides, the Ki in assay [2] is 0.0398 to 0.316 nM.

Take `Cc1cccc(-c2n[nH]cc2-c2ccc3ncc(C4=CCC(N(C)C)CC4)cc3n2)n1` (stereo not drawn) [Compound 685, N,N-dimethyl-4-[6-[3-(6-methyl-2-pyridyl)-1H-pyrazol-4-yl]-1,5-naphthyridin-3-yl]cyclohex-3-en-1-amine]: the IC50 in assay [1] is 25.1 to 158 nM. Moreover, in assay [2], the Ki was 0.0398 to 0.316 nM.

For `Cc1cccc(-c2[nH]ncc2-c2ccc3nccc(C(=O)OC[C@@H]4CCCN4)c3c2)n1` [Compound 1233, [(2S)-pyrrolidin-2-yl]methyl 6-[5-(6-methyl-2-pyridyl)-1H-pyrazol-4-yl]quinoline-4-carboxylate], the IC50 in assay [1] was 25.1 to 158 nM. Besides, the Ki in assay [2] was 0.0398 to 0.316 nM.

As for `CCOC(=O)Cc1ccnc2ccc(-c3c[nH]nc3-c3cccc(C)n3)nc12` [Compound 855, ethyl 2-[6-[3-(6-methyl-2-pyridyl)-1H-pyrazol-4-yl]-1,5-naphthyridin-4-yl]acetate], the IC50 in assay [1] was 25.1 to 158 nM. The Ki in assay [2] was 0.0398 to 0.316 nM.

`Cc1cccc(-c2[nH]cnc2-c2ccc3ncc(-c4ccc(C(=O)O[C@H]5CCNC5)cc4)cc3c2)n1` [Compound 718, [(3S)-pyrrolidin-3-yl]4-[6-[5-(6-methyl-2-pyridyl)-1H-imidazol-4-yl]-3-quinolyl]benzoate]: the IC50 in assay [1] is 25.1 to 158 nM. Further, the Ki in assay [2] was 0.0398 to 0.316 nM.
